Results taken from a melting point compilation (Tetko et al.; mined from patent text by program, amines drawn as free bases though some values may be those of a salt).

| SMILES | melting point [°C] |
| --- | --- |
| CCOc1ccccc1O[C@@H](c1ccccc1)[C@@H](CO[Si](C)(C)C)OS(C)(=O)=O (racemic) | 80 to 82.5 |
| COc1ccc(C(C)N(C)CCCOc2ccc(S(=O)(=O)c3ncc(-c4ccccc4)n3-c3ccccc3)cc2)cc1OC (stereo not given) | 162 |
| CON(C)C(=O)Nc1c(C(=O)c2cc(C)ccn2)[nH]c2cc(Cl)ccc12 | 199 to 200 |
| CCOC(=O)C(C(=O)OCC)n1cccc1C(=O)C(Cl)(Cl)Cl | 67 to 69 |
| COc1ccc(-c2ccccc2C)cc1C=O | 66 to 69 |
| Cc1ccc2nc(CCl)[nH]c(=O)c2c1 | 263 to 265 |
| COC(=O)/C=C/n1cnc2ccc(OC)cc2c1=O | 184 to 186 |
| CC(C)(C)OC(=O)C1(ON=C(C(=O)O)c2ccco2)CCCC1 | 107 |
| O=C(NCCO)c1ccc(C(=O)NCCO)cc1 | 227 to 229 |
| CS(=O)c1cc(-c2nc(=O)c3ccccc3s2)ccn1 (stereo not given) | 172 to 174 |
| Cc1c(Cc2ccc(C(C)C)cc2)c2c(c(C)c1NC(=O)CC(C)(C)C)C(C)(O)C(C)(C)O2 (stereo not given) | 170 to 171 |
| [N-]=[N+]=NCCCCCCC(N)=O | 62 |
| Nc1c(N=O)c(=O)n(CC2CCC2)c(=O)n1CC1CCC1 | 251 to 252 |
| COC(=O)N/C(=C\C[PH](=O)CO)C(=O)O (stereo not given) | 254 to 256 |
| COC(=O)C1=C(C)NC(C)=C(C(=O)OCCN(O)CCC(c2ccccc2)c2ccccc2)C1c1cccc([N+](=O)[O-])c1 (stereo not given) | 100 to 105 |
| CC12CCC(C(=O)O)=CC1=CCC1C2CCC2(C)C(C(=O)c3ccc(F)cc3)CCC12 (stereo not given) | 255 |
| O=C(O)c1cc(F)ccc1Nc1ccnc2cc(Cl)ccc12 | 341 to 342 |
| Nc1ccc(CCCc2ccc(Nc3ccccc3C(=O)O)cc2)cc1 | 110 to 112 |
| Cc1cccc(C(=O)NC2CN3CCC2CC3)c1C (racemic) | 160 to 161 |
| CCCc1cc(C(O)(CC)CC)ccc1-c1cc(OCc2ccc(CO)c(CO)c2)ccc1CC | 101 |
| CCOC(=O)CCCSc1ncnc2c(O)n(C)nc12 | 160 to 161 |
| CC(C#N)(C(N)=O)c1cccc(Oc2ccccc2)c1 (stereo not given) | 123 to 125 |
| COc1ccc(-c2[nH]c3ccccc3c(=O)c2C(=O)O)cc1 | > 300 |
| C#CCN(Cc1ccc2nc[nH]c(=O)c2c1)c1ccc(C(=O)NCc2cccc([N+](=O)[O-])c2)cc1 | 93 to 96 |
| COCOc1c(-c2ccc(C(=O)O)cc2)cccc1-c1ccc2c(c1)C(C)(C)CCC2(C)C | 74 |

| SMILES | melting point [°C] |
| --- | --- |
| COc1c(N2CC(N)C2)c(F)cc2c(=O)c(C(=O)O)cn(-c3cc(N)c(F)cc3F)c12 | > 290 |
| CC(=O)N[C@H]1CC[C@H](CCN2CCC(c3ccc(F)c4occc34)CC2)CC1 | 204 |
| CN(CCC=C1c2ccccc2C=Cc2ccccc21)CCC(=O)O | 119 to 120 |
| CCOC(=O)c1cc2cc(OCSN(C)C)ccc2oc1=O | 157 to 160 |
| NS(=O)(=O)c1cc(C(=O)O)cc(S)c1Cl | 263 to 264 |
| COC(=O)Cc1cc([N+](=O)[O-])ccc1OC | 92 |
| CC(C)=NNc1cc2c(nn1)CCN(C(=O)c1ccccc1F)C2 | 200 to 203 |
| O=C(O)[C@@H]1CCCN1Cc1cc2cc3c(cc2c2cc(OCc4ccccc4)ccc12)OCO3 | 147 to 149 |
| CC1(C)C(C)(C)C1(Cl)c1ccccn1 | 100 to 102 |
| CN1c2ccccc2C(=O)c2ccccc2C12OCCO2 | 192 to 193 |
| CCNC(=NC#N)Nc1ccc(C2=NNC(=O)CC2C)cc1 (stereo not given) | 208 to 209 |
| CCCc1nc2c(N)nc3cc(OCc4ccc(OC)cc4)ccc3c2n1CC(C)C | 186 to 188 |
| COCC(=O)Nc1cccc(-c2ccnc(NCCc3ccc(OC)c(OC)c3)n2)c1 | 140 to 141 |
| COc1cccc(C(=O)NC2(C(=O)N(C)OC)CC2)c1C | 173 to 175 |
| CCCN(CC)c1cc(C)nc(Oc2c(C)ccc(Cl)c2C)c1C | 74 to 76 |
| COc1cc(N)c(Cl)cc1C(=O)N[C@H]1CCN(CCCC(=O)N2CCC(=O)CC2)C[C@H]1OC (relative stereo) | 157 |
| CCC12C=C(C(=O)OC)n3c4c(c5ccccc53)CCN(CCC1)C42 (stereo not given) | 160 to 162 |
| CC1=C(C)C(=O)C(CCCCC#CCCCC#CC(=O)O)=C(C)C1=O | 49 to 51 |
| Cc1cccc(C)c1NC(=O)/C=C1\SC(C)C(=O)N1C (stereo not given) | 220 to 222 |
| Cc1ccccc1C(=O)Nc1c(NC(=O)CCl)ccc2c1C(=O)c1ccccc1C2=O | 179 to 180 |
| COn1c(C2CCCCC2)nc2c(N)nc3ccccc3c21 | 220 to 222 |
| O=C1NC(=O)c2c1c(-c1ccccc1Cl)cc1oc3ccc(O)cc3c21 | 140 to 145 |
| COc1ccc(C(=O)Oc2ccc(C(=O)O)c(F)c2)cc1C12CC3CC(CC(C3)C1)C2 | 254 to 256 |
| COCCOc1nc(N)nc(-c2ccccc2)c1-c1ccc(=O)n(C(C)C)n1 | 128 to 130 |
| CCOC(=O)Cn1c(=O)c(=O)[nH]c2cc(C(F)(F)F)c(N)cc21 | > 250 |

| SMILES | melting point [°C] |
| --- | --- |
| O=c1[nH]c2sccc2c2ccccc12 | 266 to 268 |
| CN=C(NS(=O)(=O)N1CCCCC1)C1=NN(c2ccc(Cl)cc2)C(c2ccccc2)C1 (stereo not given) | 141 to 144 |
| O=Cc1c([N+](=O)[O-])ccc(Cl)c1[N+](=O)[O-] | 101 to 102 |
| CCCCOc1cc(CCC(=O)O)ccc1CCCc1ccc(OCC)c(OC)c1 | 66 |
| COc1ccc(-c2ccc(N)nn2)cc1OC1CCCC1 | 207 |
| CC1(N2Cc3c(N)cccc3C2=O)CCC(=O)NC1=O (stereo not given) | 289 to 292 |
| CCN(CC)c1cccc(-c2ccnc3c(C(=O)c4cccs4)cnn23)c1 | 102 to 104 |
| O=C(NCCc1c[nH]cn1)c1ccccc1NS(=O)(=O)c1cccc(C(F)(F)F)c1 | 160 to 163 |
| CNC1=NN(C(=O)C(C)(C)C)C(C)S1 (stereo not given) | 102 to 103 |
| CC(C)(C)OC(=O)N1CCN(c2c(F)cc(N3CC(CN=[N+]=[N-])OC3=O)cc2F)CC1 (stereo not given) | 115 to 117 |
| O=C(CCCN1CCN(c2ccc(F)cc2)CC1)NC1c2ccccc2CSc2ccccc21 (stereo not given) | 194 |
| COc1c(O)c([N+](=O)[O-])cc(C(=O)c2ccccc2)c1Cl | 143 to 145 |
| CC(COc1ccc(CC2SC(=O)N(C(c3ccccc3)(c3ccccc3)c3ccccc3)C2=O)cc1)N1CC(COc2cccc(Cl)c2)OC1=O (stereo not given) | 74 to 81 |
| OC1CSC(Oc2cncc(Cl)c2)C(O)C1O (stereo not given) | 184 |
| COCCCN(C(=O)N(CCCl)N=O)C1(O)COC(OCC(C)C)C(O)C1O (stereo not given) | 67 to 69 |
| Clc1cccc(Oc2ccc3[nH]ccc3c2)n1 | 117 to 118 |
| FC(F)(F)c1ccc(/C=C/C=C/[C@H]2CC[C@H](SCc3ccc(Cl)cc3)CC2)cc1 | 142 to 144 |
| Nc1ccc2c(c1)C(NC(=O)C(F)(F)F)CC2 (stereo not given) | 133 to 134 |
| CCN(CC)CCNc1ccc(-c2ccnc(Nc3cc(OC)c(OC)c(OC)c3)n2)cn1 | 67 |
| O=C(C=Cc1cccnc1)NCCCCC1CCN(C2c3ccccc3CSc3ccccc32)CC1 (stereo not given) | 89 to 91 |
| CC#CCOc1ccc(SC(C(=O)NO)c2ccccc2OC)cc1 (stereo not given) | 172 to 173 |
| CCCc1c(O)ccc2c(C)c(CC(=O)OC)c(=O)oc12 | 160 to 162 |
| COc1cccc2c1OC(CN1CCC(CNC(=O)c3cccnc3N)CC1)CO2 (stereo not given) | 57 to 60 |
| CCC(=O)c1c(-c2ccncc2)[nH]c(-c2ccncc2)c1CC | 209 to 211 |
| O=C(O)c1cnc2n(c1=O)CCc1cc(O)c(O)cc1-2 | 308 to 314 |

| SMILES | melting point [°C] |
| --- | --- |
| COc1cc(OC)nc(CC#N)n1 | 65 to 67 |
| CC[C@H](CO)Nc1nc(Nc2ccccn2)c2ncn(C(C)C)c2n1 | 30 to 35 |
| Cc1nc2c(c3c1[nH]c1ccccc13)C(=NO)CC(C)C2 (stereo not given) | 282 to 283 |
| COc1ccc(-c2cnc3[nH]cc(C(=O)C(C)(C)C)c3n2)cc1 | 207 to 208 |
| COc1ccc(N2C(=O)C(C)(C)N(c3ccc(Cc4ccccc4)cc3)C2=S)cc1 | 162 |
| CC(C)(c1ccc(S(=O)(=O)N(CCO)CCO)cc1[N+](=O)[O-])[N+](=O)[O-] | 109 to 110 |
| CCCCCCCCCCCc1nnc2n1-c1ccccc1C(c1ccccc1)OC2 (stereo not given) | 83 to 84 |
| O=c1[nH]c(=O)n(C2CC(F)C(CF)O2)cc1C=CBr (stereo not given) | 177 to 180 |
| CCCCCCCCCCCCCCOc1ccc(CN(C(C)=O)c2ccc(CBr)cc2)cc1 | 46 to 49 |
| CC1(C)OC(c2ccc(Cl)cc2Cl)C(Cn2cncn2)(c2ccc(Cl)cc2)O1 (stereo not given) | 141 to 142 |
| Cn1c(C#N)c(Br)n(-c2ccc(Cl)cc2)c1=O | 185 |
| COc1nc(C2=NC(=O)C(C)(C(C)C)N2)c(C(=O)O)cc1C (stereo not given) | 151 to 153 |
| CCNCCC(=O)Nc1ccc2c(c1)C(=O)c1cc(NC(=O)CCNCC)ccc1C2=O | 181 |
| C1=CSC(Sc2ccccc2)(c2ccc(Sc3ccccc3)s2)C1 (stereo not given) | 110 to 112 |
| COc1ccc(C2CCN(C(=O)NCc3ccccn3)CC2)cc1OC1CCCC1 | 104 to 105 |
| CN1CCN(Cc2ccc(NC(=O)c3ccc(Cl)c(C#Cc4ccc(NC5CCC5)nn4)c3)cc2C(F)(F)F)CC1 | 132 to 133 |
| CCOC(=O)ON(C(=O)NC)c1cc(Cl)ccc1Cl | 130 to 132 |
| Cc1ccc(Br)c(S(=O)O)c1 | 120 to 122 |
| CCOCc1nc2c(N)nc3ccccc3c2n1CCCCCS(=O)(=O)N(C)C | 138 to 142 |
| CC(=O)c1c(C)[nH]c(C2CCCCC2)c1C | 186 to 188 |
| CCOC(=O)C1=C(C)Nc2c(c(C)nn2C)C1c1ccccc1[N+](=O)[O-] (stereo not given) | 194 to 198 |
| O=C(O)COc1ccc2c(-c3ccccc3F)noc2c1Br | 180 to 182 |
| CCCCCCCCCCCCCCOc1ccc(C(=O)Nc2ccc(CO)cc2)cc1 | 140 to 145 |
| COc1ccc(C2(C#N)CCC(=NO)CC2)cc1OC1CCCC1 (stereo not given) | 50 to 53 |
| CSc1ccc(-c2cnn(Cc3ccccc3)c(=O)c2Br)cc1 | 115 to 118 |
